The results in this text go back to patent US20230167105A1, “BCL-2 PROTEIN INHIBITORS” (Recurium IP Holdings, LLC, priority 2020, published 2023).

The test system of the assay is MOLT-4 cells. Description: MOLT-4 Cell Proliferation Assay (CellTiter-Glo). The assay is classed as cell-based. As to conditions: Homo sapiens, 72 h, read-out: MOLT-4 CTG IC50. The method, then: Cell proliferation was measured using the CellTiter-Glo® Luminescent Cell Viability Assay. The assay involved the addition of a single reagent (CellTiter-Glo® Reagent) directly to cells cultured in serum-supplemented medium. MOLT-4 cells (ATCC, CRL-1582) were cultured according to ATCC recommendations and were seeded at 50,000 cells per well.
Each compound evaluated was prepared as a DMSO stock solution (10 mM). Compounds were tested in duplicate on each plate, with a 10-point serial dilution curve (1:3 dilution). The highest compound concentration was 10 μM (final), with a 0.1% final DMSO concentration. Plates were then incubated at 37° C., 5% CO2 for 72 h, cell plates were equilibrated at rt for approximately 30 mins. An equi-volume amount of CellTiter-Glo® Reagent (100 μL) was added to each well. Plates were mixed for 2 mins on an orbital shaker to induce cell lysis and then incubated at rt for 10 mins to stabilize the luminescent signal. Luminescence was recorded using a Envision plate reader according to CellTiter-Glo protocol. IC50 of each compound was calculated using GraphPad Prism by nonlinear regression analysis.

In general, IC50 refers to the midpoint of a concentration-inhibition curve. Regarding `Cc1ncsc1-c1ccc([C@H](CC(=O)NCCCCCC(=O)N2CCN(CC[C@H](CSc3ccccc3)Nc3ccc(S(=O)(=O)NC(=O)c4ccc(N5CCN(CC6=C(C78CC(C(F)F)(C7)C8)CC(C)(C)CC6)CC5)cc4)cc3S(=O)(=O)C(F)(F)F)CC2)NC(=O)[C@@H]2C[C@@H](O)CN2C(=O)[C@@H](NC(=O)C2(F)CC2)C(C)(C)C)cc1` [Example 47], the IC50 is at least 150 nM.
Under `CC1(C)CCC(CN2CCN(c3ccc(C(=O)NS(=O)(=O)c4ccc(N[C@H](CCN5CCN(CCCCc6ccc7c(c6)C(=O)N(C6CCC(=O)NC6=O)C7=O)CC5)CSc5ccccc5)c(S(=O)(=O)C(F)(F)F)c4)cc3)CC2)=C(C23CC(C(F)F)(C2)C3)C1` (stereo partly drawn) [Example 17, 4-(4-((2-(3-(difluoromethyl)bicyclo[1.1.1]pentan-1-yl)-4,4-dimethylcyclohex-1-en-1-yl)methyl)piperazin-1-yl)-N-((4-(((2R)-4-(4-(4-(2-(2,6-dioxopiperidin-3-yl)-1,3-dioxoisoindolin-5-yl)butyl)piperazin-1-yl)-1-(phenylthio)butan-2-yl)amino)-3-((trifluoromethyl)sulfonyl)phenyl)sulfonyl)benzamide] stands at most 50 nM; under `CC1(C)CCC(CN2CCN(c3ccc(C(=O)NS(=O)(=O)c4ccc(N[C@H](CCN5CCN(CCCCNc6ccc7c(c6)C(=O)N(C6CCC(=O)NC6=O)C7=O)CC5)CSc5ccccc5)c(S(=O)(=O)C(F)(F)F)c4)cc3)CC2)=C(C23CC(C(F)F)(C2)C3)C1` (stereo partly drawn) [Example 13, 4-[4-[[2-[3-(difluoromethyl)-1-bicyclo[1.1.1]pentanyl]-4,4-dimethyl-cyclohexen-1-yl]methyl]piperazin-1-yl]-N-[4-[[(1R)-3-[4-[4-[[2-(2,6-dioxo-3-piperidyl)-1,3-dioxo-isoindolin-5-yl]amino]butyl]piperazin-1-yl]-1-(phenylsulfanylmethyl)propyl]amino]-3-(trifluoromethylsulfonyl)phenyl]sulfonyl-benzamide], at most 50 nM; under `CC1(C)CCC(CN2CCN(c3ccc(C(=O)NS(=O)(=O)c4ccc(N[C@H](CCN5CCN(CCCCCNc6ccc7c(c6)C(=O)N(C6CCC(=O)NC6=O)C7=O)CC5)CSc5ccccc5)c(S(=O)(=O)C(F)(F)F)c4)cc3)CC2)=C(C23CC(C(F)F)(C2)C3)C1` (stereo partly drawn) [Example 4, 4-(4-((2-(3-(difluoromethyl)bicyclo[1.1.1]pentan-1-yl)-4,4-dimethylcyclohex-1-en-1-yl)methyl)piperazin-1-yl)-N-((4-(((2R)-4-(4-(5-((2-(2,6-dioxopiperidin-3-yl)-1,3-dioxoisoindolin-5-yl)amino)pentyl)piperazin-1-yl)-1-(phenylthio)butan-2-yl)amino)-3-((trifluoromethyl)sulfonyl)phenyl)sulfonyl)benzamide], 50 to 150 nM.
As to `CC1(C)CCC(CN2CCN(c3ccc(C(=O)NS(=O)(=O)c4ccc(N[C@H](CCN5CCN(CCCCCNc6cccc7c6C(=O)N(C6CCC(=O)NC6=O)C7=O)CC5)CSc5ccccc5)c(S(=O)(=O)C(F)(F)F)c4)cc3)CC2)=C(C23CC(C)(C2)C3)C1` (stereo partly drawn) [Example 7, 4-(4-((4,4-dimethyl-2-(3-methylbicyclo[1.1.1]pentan-1-yl)cyclohex-1-en-1-yl)methyl)piperazin-1-yl)-N-((4-(((2R)-4-(4-(5-((2-(2,6-dioxopiperidin-3-yl)-1,3-dioxoisoindolin-4-yl)amino)pentyl)piperazin-1-yl)-1-(phenylthio)butan-2-yl)amino)-3-((trifluoromethyl)sulfonyl)phenyl)sulfonyl)benzamide], the IC50 lay within 50 to 150 nM.
Turning to `CN(CCCCCNc1cccc2c1C(=O)N(C1CCC(=O)NC1=O)C2=O)CC[C@H](CSc1ccccc1)Nc1ccc(S(=O)(=O)NC(=O)c2ccc(N3CCN(CC4=C(C56CC(C(F)F)(C5)C6)CC(C)(C)CC4)CC3)cc2)cc1S(=O)(=O)C(F)(F)F` (stereo partly drawn) [Example 20, 4-(4-((2-(3-(difluoromethyl)bicycle[1.1.1]pentan-1-yl)-4,4-dimethylcyclohex-1-en-1-yl)methyl)piperazin-1-yl)-N-((4-(((2R)-4-((5-((2-(2,6-dioxopiperidin-3-yl)-1,3-dioxoisoindolin-4-yl)amino)pentyl)(methyl)amino)-1-(phenylthio)butan-2-yl)amino)-3-((trifluoromethyl)sulfonyl)phenyl)sulfonyl)benzamide], the IC50 is at most 50 nM.
Under `CC1(C)CCC(CN2CCN(c3ccc(C(=O)NS(=O)(=O)c4ccc(N[C@H](CCN5CCN(CCCC#Cc6cccc7c6CN(C6CCC(=O)NC6=O)C7=O)CC5)CSc5ccccc5)c(S(=O)(=O)C(F)(F)F)c4)cc3)CC2)=C(C23CC(C(F)F)(C2)C3)C1` (stereo partly drawn) [Example 29, 4-(4-((2-(3-(difluoromethyl)bicyclo[1.1.1]pentan-1-yl)-4,4-dimethylcyclohex-1-en-1-yl)methyl)piperazin-1-yl)-N-((4-(((2R)-4-(4-(5-(2-(2,6-dioxopiperidin-3-yl)-1-oxoisoindolin-4-yl)pent-4-yn-1-yl)piperazin-1-yl)-1-(phenylthio)butan-2-yl)amino)-3-((trifluoromethyl)sulfonyl)phenyl)sulfonyl)benzamide] stands at most 50 nM.
Under `CC1(C)CCC(c2ccc(Cl)cc2)=C(CN2CCN(c3ccc(C(=O)NS(=O)(=O)c4ccc(N[C@H](CCN5CCOCC5)CSc5ccccc5)c(S(=O)(=O)C(F)(F)F)c4)cc3)CC2)C1` [ABT-263, navitoclax, reference compound] stands 50 to 150 nM.
Under `Cc1ncsc1-c1ccc([C@H](C)NC(=O)[C@@H]2C[C@@H](O)CN2C(=O)[C@@H](NC(=O)CCCCCN2CCN(CC[C@H](CSc3ccccc3)Nc3ccc(S(=O)(=O)NC(=O)c4ccc(N5CCN(CC6=C(C78CC(C)(C7)C8)CC(C)(C)CC6)CC5)cc4)cc3S(=O)(=O)C(F)(F)F)CC2)C(C)(C)C)cc1` [Example 26, (2S,4R)-1-((S)-2-(6-(4-((R)-3-((4-(N-(4-(4-((4,4-dimethyl-2-(3-methylbicyclo[1.1.1]pentan-1-yl)cyclohex-1-en-1-yl)methyl)piperazin-1-yl)benzoyl)sulfamoyl)-2-((trifluoromethyl)sulfonyl)phenyl)amino)-4-(phenylthio)butyl)piperazin-1-yl)hexanamido)-3,3-dimethylbutanoyl)-4-hydroxy-N—((S)-1-(4-(4-methylthiazol-5-yl)phenyl)ethyl)pyrrolidine-2-carboxamide] stands at least 150 nM.
On to `CCC12CC(C3=C(CN4CCN(c5ccc(C(=O)NS(=O)(=O)c6ccc(N[C@H](CCN7CCN(C(=O)CCCCCC(=O)N[C@H](C(=O)N8C[C@H](O)C[C@H]8C(=O)N[C@@H](C)c8ccc(-c9scnc9C)cc8)C(C)(C)C)CC7)CSc7ccccc7)c(S(=O)(=O)C(F)(F)F)c6)cc5)CC4)CCC(C)(C)C3)(C1)C2` [Example 14, (2S,4R)-1-((S)-2-(7-(4-((R)-3-((4-(N-(4-(4-((2-(3-ethylbicyclo[1.1.1]pentan-1-yl)-4,4-dimethylcyclohex-1-en-1-yl)methyl)piperazin-1-yl)benzoyl)sulfamoyl)-2-((trifluoromethyl)sulfonyl)phenyl)amino)-4-(phenylthio)butyl)piperazin-1-yl)-7-oxoheptanamido)-3,3-dimethylbutanoyl)-4-hydroxy-N—((S)-1-(4-(4-methylthiazol-5-yl)phenyl)ethyl)pyrrolidine-2-carboxamide], for which the IC50 was in the range of 50 to 150 nM.
Under `Cc1ncsc1-c1ccc([C@H](C)NC(=O)[C@@H]2C[C@@H](O)CN2C(=O)[C@@H](NC(=O)CCCCC(=O)N2CCN(CC[C@H](CSc3ccccc3)Nc3ccc(S(=O)(=O)NC(=O)c4ccc(N5CCN(CC6=C(C78CC(C(F)F)(C7)C8)CC(C)(C)CC6)CC5)cc4)cc3S(=O)(=O)C(F)(F)F)CC2)C(C)(C)C)cc1` [Example 1, (2S,4R)-1-((S)-2-(6-(4-((R)-3-((4-(N-(4-(4-((2-(3-(difluoromethyl)bicyclo[1.1.1]pentan-1-yl)-4,4-dimethylcyclohex-1-en-1-yl)methyl)piperazin-1-yl)benzoyl)sulfamoyl)-2-((trifluoromethyl)sulfonyl)phenyl)amino)-4-(phenylthio)butyl)piperazin-1-yl)-6-oxohexanamido)-3,3-dimethylbutanoyl)-4-hydroxy-N—((S)-1-(4-(4-methylthiazol-5-yl)phenyl)ethyl)pyrrolidine-2-carboxamide] stands at least 150 nM; under `CC1(C)CCC(CN2CCN(c3ccc(C(=O)NS(=O)(=O)c4ccc(N[C@H](CCN5CCN(CCCCCc6cccc7c6C(=O)N(C6CCC(=O)NC6=O)C7=O)CC5)CSc5ccccc5)c(S(=O)(=O)C(F)(F)F)c4)cc3)CC2)=C(C23CC(C(F)F)(C2)C3)C1` (stereo partly drawn) [Example 22, 4-(4-((2-(3-(difluoromethyl)bicyclo[1.1.1]pentan-1-yl)-4,4-dimethylcyclohex-1-en-1-yl)methyl)piperazin-1-yl)-N-((4-(((2R)-4-(4-(5-(2-(2,6-dioxopiperidin-3-yl)-1,3-dioxoisoindolin-4-yl)pentyl)piperazin-1-yl)-1-(phenylthio)butan-2-yl)amino)-3-((trifluoromethyl)sulfonyl)phenyl)sulfonyl)benzamide], at least 150 nM; under `CC1(C)CCC(CN2CCN(c3ccc(C(=O)NS(=O)(=O)c4ccc(N[C@H](CCN5CCN(CCCCCOc6cccc7c6C(=O)N(C6CCC(=O)NC6=O)C7=O)CC5)CSc5ccccc5)c(S(=O)(=O)C(F)(F)F)c4)cc3)CC2)=C(C23CC(C(F)F)(C2)C3)C1` (stereo partly drawn) [Example 3, 4-(4-((2-(3-(difluoromethyl)bicyclo [1.1.1]pentan-1-yl)-4,4-dimethylcyclohex-1-en-1-yl)methyl)piperazin-1-yl)-N-((4-(((2R)-4-(4-(5-((2-(2,6-dioxopiperidin-3-yl)-1,3-dioxoisoindolin-4-yl)oxy)pentyl)piperazin-1-yl)-1-(phenylthio)butan-2-yl)amino)-3-((trifluoromethyl)sulfonyl)phenyl)sulfonyl)benzamide], at most 50 nM.
